# Patent publication US10421765B2, “Tetrahydropyrido[4,3-d]pyrimidine inhibitors of ATR kinase” (Board of Regents, The University of Texas System, priority 2017, dated 2019)
# Like-named read-outs stand apart in the source and are kept apart here.
# Columns and labels:
# [1] = test system: ATR-driven phosphorylation of Chk1 kinase at Serine 345 in HT-29 colorectal adenocarcinoma cells; assay: pCHK1 cellular assay (CHK1 p-Ser345 AlphaScreen SureFire); type: cell-based; settings: Homo sapiens, HT-29, HT-29 cells, 4-nitroquinoline N-oxide 12 uM; read-out: Cell IC50 (pCHK1 IC50 values)
# Method: Inhibitors of ATR kinase are effective at inhibiting the ATR-driven phosphorylation of the downstream target Chk1 kinase at Serine 345, following the addition of 4-nitroquinoline N-oxide, a chemical used to induce DNA damage. Cellular IC50 for the inhibitors of ATR described herein were measured in HT-29 colorectal adenocarcinoma cells. HT-29 cells were routinely maintained in McCoy's 5A media (ATCC Catalog #30-2007) supplemented with 10% fetal bovine serum (Sigma Catalog #F2442) and 1× Penicillin-Streptomycin (Gibco Catalog #15140-122) using a humidified incubator (37° C., 5% CO2, and ambient O2).
# In preparation for the CHK1 (p-Ser345) ALPHASCREEN® SUREFIRE® assay, cells were harvested and resuspended in McCoy's 5A media supplemented with 10% fetal bovine serum and 1× Penicillin-Streptomycin. Cells were seeded onto a 384-well black CELLSTAR® Tissue Culture Plate (VWR Catalog #89085-314) at a density of 13,000 cells/well in a volume of 40 uL. The microplate was incubated overnight (approximately 20 hours) at 37° C. with 5% CO2 and ambient O2. Stock solutions of the test compounds were prepared in 100% DMSO (Sigma, Catalog #D2650) and serially diluted 1:3 using 100% DMSO. Compounds were additionally diluted 1:33 in culture medium, and 10 ul/well were transferred to the tissue culture plate. Following the compound addition the microplate was incubated at 37° C. for 90 minutes. 10 uL of 4-nitroquinoline N-oxide (Sigma Aldrich Catalog #N8141-1G) diluted in media (final concentration 12 uM) were added to the tissue culture plate followed by a 120 minute incubation at 37° C. The cells were then washed with PBS and lysed using 10 uL/well SUREFIRE® Kit lysis buffer diluted to 1× in water (PerkinElmer Catalog #TGRCHK1S50K), with mixing on an orbital shaker at 500 rpm for 20 min at RT. Lysates were frozen at −20° C. overnight.
# 4 uL/well of lysate was then transferred from the tissue culture plate to a 384-well, white, low volume, PROXIPLATE™ (PerkinElmer Catalog #600828). 5 uL/well of the acceptor bead solution, prepared by diluting SUREFIRE® Kit activation buffer (PerkinElmer Catalog #TGRCHK1S50K) and ALPHASCREEN® Protein A acceptor beads (PerkinElmer Catalog #6760617R) in SUREFIRE® Kit reaction buffer (PerkinElmer Catalog #TGRCHK1S50K), were added to the lysates under subdued light and incubated at room temperature for 120 min. 2 uL/well of the donor bead solution, prepared by diluting ALPHASCREEN® Streptavidin donor beads (PerkinElmer Catalog #6760617R) in SUREFIRE® Kit dilution buffer (PerkinElmer Catalog #TGRCHK1S50K), were added under subdued light and incubated at room temperature for an addition 120 minutes. The pCHK1 ALPHASCREEN® signal was measured using an ENVISION® plate reader (PerkinElmer). IC50 values were calculated using a four-parameter logistic curve fit using Genedata Screener software. Percent of control for each compound concentration was calculated by the following formula: 100*(Compound−Min)/(Max−Min) where “Max” is the high control, DMSO, and “Min” is the low control, 5 uM ATR inhibitor.
# ATR/ATRIP complex = ATR/ATRIP complex (Homo sapiens (Human), UniProt Q13535); assay: ATR/ATRIP enzymatic assay (Caliper-based); type: biochemical; settings: FAM-labeled RAD17 peptide, ATP
# Sequence of ATR/ATRIP complex (Q13535 whole entry): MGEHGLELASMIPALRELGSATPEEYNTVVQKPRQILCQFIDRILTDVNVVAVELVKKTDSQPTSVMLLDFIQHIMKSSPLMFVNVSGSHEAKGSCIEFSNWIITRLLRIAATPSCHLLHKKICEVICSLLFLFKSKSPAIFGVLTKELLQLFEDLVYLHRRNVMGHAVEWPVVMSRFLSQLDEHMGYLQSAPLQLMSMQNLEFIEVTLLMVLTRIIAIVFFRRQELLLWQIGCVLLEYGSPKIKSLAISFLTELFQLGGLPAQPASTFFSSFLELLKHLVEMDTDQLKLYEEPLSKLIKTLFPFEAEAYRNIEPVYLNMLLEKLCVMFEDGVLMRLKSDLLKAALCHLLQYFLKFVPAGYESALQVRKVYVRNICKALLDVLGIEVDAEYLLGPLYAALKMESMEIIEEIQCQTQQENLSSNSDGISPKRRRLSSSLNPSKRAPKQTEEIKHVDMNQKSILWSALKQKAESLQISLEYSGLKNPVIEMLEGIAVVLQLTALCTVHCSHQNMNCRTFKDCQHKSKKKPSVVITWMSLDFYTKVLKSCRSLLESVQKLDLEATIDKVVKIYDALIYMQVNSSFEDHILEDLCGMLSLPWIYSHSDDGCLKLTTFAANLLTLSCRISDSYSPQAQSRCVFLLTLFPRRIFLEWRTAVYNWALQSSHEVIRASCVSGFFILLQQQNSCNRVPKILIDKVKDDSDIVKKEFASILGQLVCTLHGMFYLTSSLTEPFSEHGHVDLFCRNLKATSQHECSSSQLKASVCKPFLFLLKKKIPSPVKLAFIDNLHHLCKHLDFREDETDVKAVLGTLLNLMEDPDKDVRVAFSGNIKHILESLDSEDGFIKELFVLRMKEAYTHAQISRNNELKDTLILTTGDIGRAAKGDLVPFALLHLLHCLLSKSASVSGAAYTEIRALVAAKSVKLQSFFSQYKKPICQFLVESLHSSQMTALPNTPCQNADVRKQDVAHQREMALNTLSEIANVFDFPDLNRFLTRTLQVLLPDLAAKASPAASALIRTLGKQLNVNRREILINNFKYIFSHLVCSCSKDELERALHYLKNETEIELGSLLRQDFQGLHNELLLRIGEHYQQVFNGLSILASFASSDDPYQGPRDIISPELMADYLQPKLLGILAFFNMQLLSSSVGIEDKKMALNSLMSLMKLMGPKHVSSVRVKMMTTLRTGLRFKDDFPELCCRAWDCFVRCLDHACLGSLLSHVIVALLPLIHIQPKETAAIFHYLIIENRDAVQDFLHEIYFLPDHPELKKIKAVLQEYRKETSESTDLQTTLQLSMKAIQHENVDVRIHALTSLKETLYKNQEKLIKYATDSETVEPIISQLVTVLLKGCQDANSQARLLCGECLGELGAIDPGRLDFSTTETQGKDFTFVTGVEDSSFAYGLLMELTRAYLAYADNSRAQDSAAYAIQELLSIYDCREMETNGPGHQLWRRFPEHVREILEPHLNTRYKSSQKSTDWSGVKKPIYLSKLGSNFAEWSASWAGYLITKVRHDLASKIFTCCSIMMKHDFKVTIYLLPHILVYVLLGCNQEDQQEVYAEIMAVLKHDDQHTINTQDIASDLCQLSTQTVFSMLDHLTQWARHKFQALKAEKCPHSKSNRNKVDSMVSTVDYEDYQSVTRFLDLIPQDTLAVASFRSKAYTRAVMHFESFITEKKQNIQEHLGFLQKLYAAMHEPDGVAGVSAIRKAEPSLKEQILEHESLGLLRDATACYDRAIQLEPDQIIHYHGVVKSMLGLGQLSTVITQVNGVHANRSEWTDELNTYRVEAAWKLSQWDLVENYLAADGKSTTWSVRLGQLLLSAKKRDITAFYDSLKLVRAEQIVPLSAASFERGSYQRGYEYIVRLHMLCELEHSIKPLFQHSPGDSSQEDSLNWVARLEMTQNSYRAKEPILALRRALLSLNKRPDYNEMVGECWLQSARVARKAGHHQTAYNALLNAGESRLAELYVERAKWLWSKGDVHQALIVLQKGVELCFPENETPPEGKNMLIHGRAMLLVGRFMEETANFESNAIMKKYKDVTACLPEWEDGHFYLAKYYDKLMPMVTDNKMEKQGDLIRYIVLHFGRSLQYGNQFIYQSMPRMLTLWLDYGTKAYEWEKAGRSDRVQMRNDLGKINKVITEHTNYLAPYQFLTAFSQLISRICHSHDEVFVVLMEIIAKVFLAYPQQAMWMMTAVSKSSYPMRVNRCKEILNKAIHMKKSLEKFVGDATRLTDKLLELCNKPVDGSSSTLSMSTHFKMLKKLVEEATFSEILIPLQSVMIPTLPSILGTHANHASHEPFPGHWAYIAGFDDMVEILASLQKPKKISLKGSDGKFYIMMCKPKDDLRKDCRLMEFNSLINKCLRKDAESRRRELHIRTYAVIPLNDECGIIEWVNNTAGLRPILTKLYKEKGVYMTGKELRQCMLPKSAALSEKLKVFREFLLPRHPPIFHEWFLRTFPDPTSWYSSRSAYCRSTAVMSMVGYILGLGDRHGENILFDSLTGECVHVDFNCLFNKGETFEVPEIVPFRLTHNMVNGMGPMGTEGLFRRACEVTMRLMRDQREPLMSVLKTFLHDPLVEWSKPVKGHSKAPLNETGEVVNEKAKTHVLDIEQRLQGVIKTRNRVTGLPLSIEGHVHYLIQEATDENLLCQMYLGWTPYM
# Sequence of ATR/ATRIP complex (Q8WXE1 whole entry partner): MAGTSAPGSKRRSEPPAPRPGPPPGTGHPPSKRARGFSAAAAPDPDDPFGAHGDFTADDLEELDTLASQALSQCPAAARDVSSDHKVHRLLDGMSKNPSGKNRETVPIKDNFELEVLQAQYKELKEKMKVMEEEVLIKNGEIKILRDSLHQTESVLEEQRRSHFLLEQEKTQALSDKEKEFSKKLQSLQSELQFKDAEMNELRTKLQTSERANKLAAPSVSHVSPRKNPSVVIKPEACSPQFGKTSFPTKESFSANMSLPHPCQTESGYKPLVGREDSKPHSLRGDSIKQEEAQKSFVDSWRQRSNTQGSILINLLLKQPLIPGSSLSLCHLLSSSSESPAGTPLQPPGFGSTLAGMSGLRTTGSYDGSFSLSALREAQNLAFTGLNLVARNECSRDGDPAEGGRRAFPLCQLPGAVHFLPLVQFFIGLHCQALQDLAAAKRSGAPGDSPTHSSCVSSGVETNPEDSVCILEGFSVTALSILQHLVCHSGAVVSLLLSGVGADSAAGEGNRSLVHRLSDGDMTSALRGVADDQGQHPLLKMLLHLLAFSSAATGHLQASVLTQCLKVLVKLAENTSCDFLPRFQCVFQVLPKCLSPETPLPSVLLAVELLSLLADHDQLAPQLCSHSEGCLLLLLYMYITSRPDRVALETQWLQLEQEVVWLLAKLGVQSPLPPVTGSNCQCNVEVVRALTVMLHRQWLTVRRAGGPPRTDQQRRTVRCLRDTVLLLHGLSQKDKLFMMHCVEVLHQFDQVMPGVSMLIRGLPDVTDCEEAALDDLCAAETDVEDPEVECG
# Method: Human full-length FLAG-TEV-ATR and His6-ATRIP were co-expressed in HEK293 cells. The cell pellet (20 g) was harvested and lysed in 100 mL of lysis buffer (20 mM Tris-HCl pH 7.5 at room temperature, 137 mM NaCl, 10% glycerol, 1 mM DTT, 1% (v/v) Tween-20, 0.1% (v/v) NP-40, complete protease inhibitor cocktail tablets, phosphatase inhibitor cocktail tablets, 2 mM MgCl2, 0.2 mM EDTA, and 1 mM ATP). After sonication and centrifugation, the supernatant was incubated at 4° C. for 3 hours with 1 mL of anti-FLAG resin (Sigma catalog #A2220) that had been pre-equilibrated in buffer A (20 mM Tris-HCl pH 7.5 at room temperature, 137 mM NaCl, 10% glycerol, 1 mM DTT, 2 mM MgCl2, and 0.2 mM EDTA). The sample was loaded into a column, and then washed with buffer A three times. Protein was subsequently eluted with 2 ml of buffer B (buffer A+200 μg/ml 3×FLAG peptide).
# The ability of new chemical matter to inhibit the ATR catalytic activity in this ATR/ATRIP complex was assessed using a Caliper-based assay. A 2x enzyme solution (i.e., 4 nM enzyme) was prepared using 1× Kinase Reaction Buffer (25 mM HEPES pH 8, 0.0055% Brij-35, 10 mM MnCl2, and 1 mM DTT). A 2x peptide solution was then prepared consisting of 10 uM FAM-labeled RAD17 peptide (GL Biochem, catalog #524315) in 1× Kinase Reaction Buffer supplemented with 2 μM ATP. 10 μL of the 2× enzyme solution was transferred to an assay plate containing 60 nL of test compound (from a 3× serial dilution) in 100% DMSO. Following a 30 minute incubation at 28° C., 10 μL of the 2× peptide solution was then transferred to the same assay plate. The reaction was allowed to incubate at 28° C. for 6 hours. After adding […] of stop buffer (100 mM HEPES pH 7.5, 0.015% Brij-35, 0.2% Coating-3 Reagent (PerkinElmer, catalog #PN760050), and 50 mM EDTA), data were collected on a Caliper instrument. Conversion values were converted to inhibition values via the following equation: % inhibition=(max−conversion)/(max−min)*100, whereby “max” corresponds to the DMSO control and “min” corresponds to the low control. IC50 values were calculated using the following equation in XLFit: Y=Bottom+(Top−Bottom)/1+(IC50/X)^HillSlope).
# [2] = read-out: ATR/ATRIP Enzyme IC50
# [3] = estimated range, read-out: ATR/ATRIP Enzyme IC50 (estimated class)
Compound,IC50 [1],IC50 (ATR/ATRIP complex; [2]),ATR/ATRIP Enzyme IC50 (ATR/ATRIP complex),IC50 (ATR/ATRIP complex; [3])
"C[C@@H]1Cc2ncnc(C3=CCC(NS(C)(=O)=O)CC3)c2CN1c1cc(Cl)nc2[nH]ccc12 (stereo partly drawn) [Example 73, N-(4-((R)-6-(6-chloro-1H-pyrrolo[2,3-b]pyridin-4-yl)-7-methyl-5,6,7,8-tetrahydropyrido[4,3-d]-pyrimidin-4-yl)cyclohex-3-en-1-yl)methane-sulfonamide]",18 nM,111 nM,,
"C[C@@H]1Cc2ncnc(C3CCN(S(C)(=O)=O)CC3)c2CN1c1cc(OC2CCC2)nc2[nH]ccc12 [Example 99, (R)-6-(6-cyclobutoxy-1H-pyrrolo[2,3-b]pyridin-4-yl)-7-methyl-4-(1-(methylsulfonyl)piperidin-4-yl)-5,6,7,8-tetrahydro-pyrido[4,3-d]pyrimidine]",9 nM,75 nM,,
"CS(=O)(=O)N1CCC(c2ncnc3c2CN(c2ccnc4[nH]ccc24)[C@@H](C(F)F)C3)CC1 [Example 53a, (R)-7-(difluoromethyl)-4-(1-(methylsulfonyl)piperidin-4-yl)-6-(1H-pyrrolo[2,3-b]pyridin-4-yl)-5,6,7,8-tetrahydropyrido[4,3-d]pyrimidine]",10000 nM,,no fit,
"C[C@@H]1Cc2ncnc(C3CCN(C(=O)C(C)(C)O)CC3)c2CN1c1ccnc2[nH]ccc12 [Example 49, (R)-2-Hydroxy-2-methyl-1-(4-(7-methyl-6-(1H-pyrrolo[2,3-b]pyridin-4-yl)-5,6,7,8-tetrahydropyrido[4,3-d]pyrimidin-4-yl)piperidin-1-yl)propan-1-one]",654 nM,3600 nM,,
"CCC1(O)CCN(c2ncnc3c2CN(c2cc(Cl)nc4[nH]ccc24)[C@H](C)C3)CC1 [Example 46, (R)-1-(6-(6-Chloro-1H-pyrrolo[2,3-b]pyridin-4-yl)-7-methyl-5,6,7,8-tetrahydropyrido[4,3-d]pyrimidin-4-yl)-4-ethylpiperidin-4-ol]",21 nM,282 nM,,
"CS(=O)(=O)c1cccc(-c2ncnc3c2CN(c2ccnc4[nH]ccc24)CC3)c1 [Example 14, 4-(3-methanesulfonyl-phenyl)-6-{1H-pyrrolo-[2,3-b]pyridin-4-yl}-5H,6H,7H,8H-pyrido [4,3-d]pyrimidine]",1610 nM,,,1000 to 10000 nM
"C[C@@H]1Cc2ncnc(C3CCN(S(=O)(=O)C4CC4)CC3)c2CN1c1ccnc2[nH]ccc12 [Example 80, (R)-4-(1-(cyclopropyl-sulfonyl)piperidin-4-yl)-7-methyl-6-(1H-pyrrolo[2,3-b]pyridin-4-yl)-5,6,7,8-tetrahydro-pyrido[4,3-d]pyrimidine]",132 nM,1090 nM,,
"COC(=O)N1CCCC(c2ncnc3c2CN(c2cc(Cl)nc4[nH]ccc24)[C@H](C)C3)C1 (stereo partly drawn) [Example 10, Methyl 3-((R)-6-(6-chloro-1H-pyrrolo[2,3-b]pyridin-4-yl)-7-methyl-5,6,7,8-tetrahydro-pyrido[4,3-d]pyrimidin-4-yl)piperidine-1-carboxylate bis(trifluoroacetate)]",39 nM,408 nM,,
"CNC(=O)[C@@H]1CCCN(c2ncnc3c2CN(c2cc(Cl)nc4[nH]ccc24)[C@H](C)C3)C1 [Example 44, (R)-1-((R)-6-(6-Chloro-1H-pyrrolo[2,3-b]pyridin-4-yl)-7-methyl-5,6,7,8-tetrahydropyrido[4,3-d]pyrimidin-4-yl)-N-methylpiperidine-3-carboxamide]",92 nM,1040 nM,,
"C[C@@H]1Cc2ncnc(C3CN(S(C)(=O)=O)C3)c2CN1c1cc(Cl)nc2[nH]ccc12 [Example 47, (R)-6-(6-Chloro-1H-pyrrolo[2,3-b]pyridin-4-yl)-7-methyl-4-(1-(methylsulfonyl)azetidin-3-yl)-5,6,7,8-tetrahydropyrido[4,3-d]pyrimidine]",30 nM,287 nM,,
"C[C@@H]1Cc2ncnc(C3CCN(S(C)(=O)=O)CC3)c2CN1c1cc(OCC(F)(F)F)nc2[nH]ccc12 [Example 96, (R)-7-methyl-4-(1-(methylsulfonyl)piperidin-4-yl)-6-(6-(2,2,2-tri-fluoroethoxy)-1H-pyrrolo[2,3-b]pyridin-4-yl)-5,6,7,8-tetrahydro-pyrido[4,3-d]pyrimidine]",22 nM,321 nM,,

# Next, values leading:
IC50 [1],IC50 (ATR/ATRIP complex; [2]),ATR/ATRIP Enzyme IC50 (ATR/ATRIP complex),IC50 (ATR/ATRIP complex; [3]),Compound
28 nM,899 nM,,,"COC(=O)N1CCC(c2ncnc3c2CN(c2cc(Cl)nc4[nH]ccc24)[C@H](C)C3)CC1 [Example 25, methyl 4-[(7R)-6-{6-chloro-1H-pyrrolo[2,3-b]pyridin-4-yl}-7-methyl-5H,6H,7H,8H-pyrido [4,3-d]pyrimidin-4-yl]piperidine-1-carboxylate]"
10 nM,123 nM,,,"CCOc1cc(N2Cc3c(ncnc3C3CCN(S(C)(=O)=O)CC3)C[C@H]2C)c2cc[nH]c2n1 [Example 54, (R)-6-(6-ethoxy-1H-pyrrolo[2,3-b]pyridin-4-yl)-7-methyl-4-(1-(methylsulfonyl)piperidin-4-yl)-5,6,7,8-tetrahydropyrido[4,3-d]pyrimidine]"
1940 nM,,,1000 to 10000 nM,"CS(=O)(=O)N1CCC(c2ncnc3c2CN(c2ccnc4[nH]ccc24)CC3)CC1 [Example 2, 4-(1-(Methylsulfonyl)piperidin-4-yl)-6-(1H-pyrrolo[2,3-b]pyridin-4-yl)-5,6,7,8-tetrahydropyrido[4,3-d]pyrimidine bis(trifluoroacetate)]"
7 nM,73 nM,,,"C[C@@H]1Cc2ncnc(N3CCC[C@H](NS(C)(=O)=O)C3)c2CN1c1cc(Cl)nc2[nH]ccc12 [Example 71, N-((S)-1-((R)-6-(6-chloro-1H-pyrrolo[2,3-b]-pyridin-4-yl)-7-methyl-5,6,7,8-tetrahydropyrido-[4,3-d]pyrimidin-4-yl)-piperidin-3-yl)-methanesulfonamide]"
46 nM,,,1000 to 10000 nM,"COC(=O)NC1[C@@H]2CC[C@H]1CN(c1ncnc3c1CN(c1cc(Cl)nc4[nH]ccc14)[C@H](C)C3)C2 (stereo partly drawn) [Example 28, methyl N-{3-[(7R)-6-{6-chloro-1H-pyrrolo[2,3-b]-pyridin-4-yl}-7-methyl-5H,6H,7H,8H-pyrido[4,3-d]pyrimidin-4-yl]-3-aza-bicyclo[3.2.1]octan-8-yl}carbamate]"
